Results on 12 substances are retold here after patent publication US12414990B2, “Use of HLA-A*11:01-restricted hepatitis B virus (HBV) peptides for identifying HBV-specific CD8+ T cells” (AGENCY FOR SCIENCE, TECHNOLOGY AND RESEARCH, priority 2019, dated 2025).

Test [1] has as its system antigen-specific CD8+ T cells. As to the kind of experiment: High-dimensional phenotypic profiling of antigen-specific CD8+ T cells (t-SNE, Phenograph, One-SENSE, Scorpius). It counts as cell-based, human. As for the experimental part:
Validated antigen-specific CD8+ T cells were exported individually from each donor for dimensionality reduction analysis. Detailed methodology for t-SNE and One-SENSE can be found elsewhere. Briefly, t-SNE and One-SENSE were performed using custom R scripts based on “flowCore” and “Rtsne” packages downloaded from The Comprehensive R Archive Network (CRAN). All data were transformed using the “logicleTransform” function and w=0.25, t=16409, m=4.5, a=0 as input parameters to roughly match scaling historically used in FlowJo. Cellular markers analyzed by t-SNE and One-SENSE were indicated (table S2). For One-SENSE, cellular markers in each T cell category (“Differentiation+TNFR”, “Exhaustion” and “Trafficking”) were subjectively assigned for categorical analysis. Aligned heatplots represent the distribution of marker positive cells in percentage on each “bin” on the axis (category) constructed by cells residing in small ranges of values. Positive population of markers was manually defined and markers of the same category were combined for each dimension using 250 bins.
Logistic regression was performed using the drc R package (v 3.0.1) using a 3-parameters logistic model.

For test [2], the system named is HLA-A*11:01-restricted antigen-specific CD8+ T cells in patient's PBMC. As to the kind of experiment: Highly multiplexed combinatorial pMHC tetramer staining with mass cytometry (epitope mapping, frequency of antigen-specific CD8+ T cells). To be noted: for detection / frequency of epitope-specific CD8+ T cells across patient groups: ex vivo PBMC, groups IT, IA, InA, R, HD, CB.

The subject of test [3] is virus-specific CD8+ T cells in patient PBMC. Nature of the test: In vitro virus-specific CD8+ T cell expansion by peptide stimulation with intracellular cytokine staining. It counts as cell-based, human. As for the experimental part: PBMC from patients were thawed and recovered, and then resuspend in AIM-V medium (with 2% human AB serum, 1% penicillin/streptomycin/L-glutamine, 1% 1M HEPES) (Gibco, Invitrogen) with 20 IU/ml of recombinant human IL-2 (R&D). Cells were pulsed with corresponded HBV or control peptides at 1 μM per 1 million cells in 200 μl medium in 96-well round-bottom tissue culture plate and cultured for 10 days at 37° C. Half of the medium was replaced as supplementary every three days without any peptide. […] After incubation, cells were collected and then stained with the 50-plex pMHC tetramers (table S1) and surface antibodies. Intracellular cytokine staining was performed on the second day as indicated in (table S2). All staining, cellular barcoding, and CD8 T cell enrichment were done in the same manner as ex vivo staining described above.

[4] abbreviates: Immune Active (IA) CHB patients, patients with detected tetramer+ CD8+ T cells (frequency > 0.002%) / patients in the group, per epitope cluster.
[5] abbreviates: Immune Active (IA) patients, donors with tetramer+ CD8+ T cell frequency > 0.002% / donors tested.
The mark [6] stands for this setting: Immune Tolerant (IT) patients, donors with tetramer+ CD8+ T cell frequency > 0.002% / donors tested.
The mark [7] stands for this setting: Acute resolved (R) patients, patients with detected tetramer+ CD8+ T cells (frequency > 0.002%) / patients in the group, per epitope cluster.
Where [8] appears, read: Immune Tolerant (IT) CHB patients, patients with detected tetramer+ CD8+ T cells (frequency > 0.002%) / patients in the group, per epitope cluster.
Setting [9] is: Inactive Carrier (InA) patients, donors with tetramer+ CD8+ T cell frequency > 0.002% / donors tested.

“Also recorded” adds a separate entry of the source.

“HBV-C-195v2: HBV core epitope, cluster 283, 1 unique peptide (RSQSPRRRRSK; Hepatitis B virus)”: in test [1] (ex vivo), the “phenotype of tetramer-stained epitope-specific CD8+ T cells” value is “mostly naïve-like phenotype”. In test [2], the “detection / frequency of epitope-specific CD8+ T cells across patient groups” value is on record as “highest frequencies observed”.
Consider “LVVDFSQFSR (Hepatitis B virus) [HBV-P-387]”, for which the “numbers of co-expressed inhibitory receptors on epitope-specific CD8+ T cells” value in test [1] (Boolean strategy, across patient groups) is recorded as “no differences in terms of the numbers accumulated on the cells across patient groups”. In addition, the “proportion of cells with C13-like phenotype (CXCR3+CD27hiCD127hi) within HBVpol387-specific CD8+ T cells” value in test [1] (IT patients) is recorded as about 80%. Further, the “expansion of antigen-specific CD8+ T cells upon peptide stimulation” value in test [3] (10 days in vitro culture, 1 μM peptide) is listed as “less expanded in IT patients”. Moreover, in test [3] (10 days in vitro peptide stimulation, restimulation 7 hours), the “functional subset of virus-specific CD8+ T cells after antigen recall (One-SENSE)” value is “multi-functional subset”. The “detection / frequency of epitope-specific CD8+ T cells across patient groups” value in test [2] was “highest frequencies observed; also recorded: relatively high frequency in CHB and also in half of the HD tested”.
Turning to STFHQALLDPR, the “Hits (Freq > 0.002%) IA” value in test [2] (setting [4]) is given as 1/12.
With GSTHVSWPK, the “Hits (Freq > 0.002%) IA” value in test [2] (setting [5]) was 1/12. Further, in test [2] (setting [6]), the “Hits (Freq > 0.002%) IT” value is 1/8.
With SSCLHQPAVRK, in test [2] (Inactive Carrier (InA) CHB patients, patients with detected tetramer+ CD8+ T cells (frequency > 0.002%) / patients in the group, per epitope cluster), the “Hits (Freq > 0.002%) InA” value is listed as 1/12.
On to LQAGFFLLTK, for which the “Hits (Freq > 0.002%) IA” value in test [2] (setting [4]) was 1/12.
For the substance TVSAISSILSK, the “Hits (Freq > 0.002%) R” value in test [2] (setting [7]) is 1/12. Moreover, the “Hits (Freq > 0.002%) IA” value in test [2] (setting [4]) is on record as 2/12. Also, the “Hits (Freq > 0.002%) IT” value in test [2] (setting [8]) is given as 1/8.
Turning to LTINENRRLK, in test [2] (setting [4]), the “Hits (Freq > 0.002%) IA” value was 1/12.
Turning to QVLPKVLHK, the “Hits (Freq > 0.002%) IA” value in test [2] (setting [5]) was 1/12.
In the case of KTAYSHLSTSK, in test [2] (setting [7]), the “Hits (Freq > 0.002%) R” value is on record as 7/12. Besides, in test [2] (setting [8]), the “Hits (Freq > 0.002%) IT” value was 8/8.
With LSLGIHLNPNK, the “Hits (Freq > 0.002%) IA” value in test [2] (setting [5]) is recorded as 3/12. Moreover, the “Hits (Freq > 0.002%) InA” value in test [2] (setting [9]) is on record as 1/13.
Take LLYKTFGRK: the “Hits (Freq > 0.002%) IA” value in test [2] (setting [5]) is on record as 5/12. In addition, the “Hits (Freq > 0.002%) IT” value in test [2] (setting [6]) is recorded as 4/8. In addition, the “Hits (Freq > 0.002%) InA” value in test [2] (setting [9]) is reported as 5/13. In test [2] (acute resolved (R) patients, donors with tetramer+ CD8+ T cell frequency > 0.002% / donors tested), the “Hits (Freq > 0.002%) R” value was 1/12.
